The values that follow come from publication PMC4663167 (Insect biochemistry and molecular biology, 2015).

This test addresses PhumOR2 (odorant receptor) (Pediculus humanus, UniProt A0ACM8QMA3). Format: cell-based.

SMILES strings stand for the structures.

`CC1CCC(O)CC1` (stereo not drawn) [4-methylcyclohexanol] showed an EC50 of 120 µM.

Molecule `CC(O)c1ccccc1` (stereo not drawn) [1-phenylethanol] had an EC50 of 1300 µM.

As to `Cc1cccc(O)c1C` [2,3-dimethylphenol], the EC50 was found to be 103 µM.

In general, EC50 refers to the concentration giving half of the maximal effect.
